Results from US9844563B2, “Compositions, kits, and methods to induce acquired cytoresistance using stress protein inducers” (FRED HUTCHINSON CANCER RESEARCH CENTER, priority 2014, dated 2017).
Values joined by “and” are separate entries in the source; they are usually repeats but may differ in a detail not shown here. Identical values can stand only once.

Columns and labels:
HO-1 mRNA = experiment: Renal cortical HO-1 mRNA (RT-PCR) after IV myoglobin, SnPP or both; format: in vivo, mice; conditions: 4 hrs post IV injection
Source text: The Glycerol Model of AKI. This is a widely used model of rhabdomyolysis-induced AKI that has been employed worldwide for 50 years. The model was used to test whether prophylactic interventions confer protection against AKI. Basically, the protocol is as follows: Male CD-1 mice (35-45 grams), obtained from Charles River Laboratories, Wilmington, Mass. were studied. Mice were maintained under standard vivarium conditions and generally housed for 1-3 weeks prior to study. The mice were placed in a cylindrical restraining cage, and then were given a tail vein injection of the test substances (see below) or test substance vehicle. The mice were then returned to their cages. Eighteen hours (hrs) later, the mice were briefly anesthetized by isoflurane inhalation, and given an intramuscular injection of hypertonic (50%) glycerol in a dose of 9 ml/Kg body weight. The dose is divided in two, with half injected into the muscle of each of the hind limbs. The mice were then returned to their cages. Eighteen hrs later, the mice were deeply anesthetized with pentobarbital (50-100 mg/Kg), the abdominal cavity was opened through a midline abdominal incision, a blood sample was obtained from the abdominal vena cava and the kidneys were resected. A kidney cross section was obtained and fixed in formalin for subsequent histologic analysis. The terminal blood samples were analyzed for BUN and creatinine, using commercially available assay kits. The remaining kidney tissue was subjected to cortical dissection, and the cortical tissues were then extracted for protein and RNA. The protein samples were saved for analysis of HO-1 levels, and the RNA samples were subjected to RT-PCR to quantify HO-1 mRNA as well as levels of other stress gene mRNAs (e.g. NGAL, haptoglobin, hemopexin, hepicidin).
Myoglobin+SnPP: To 5 mg of dry myoglobin was added 0.9 ml of PBS+0.1 ml of a stock SnPP solution (50 umole/ml). The resulting final concentrations were 5 mg/ml myoglobin+5 umoles/ml of SnPP. The tail vein was injected with 200 ul of this solution, which equals 1 mg myoglobin+1 umole SnPP. […]
Four hr post myoglobin vs myoglobin+SnPP vs SnPP alone experiments. To confirm that the myoglobin+SnPP has a synergistic effect in inducing HO-1 mRNA and HO-1 protein levels, each of the above combinations have been administered alone via tail vein injection. Four hrs later, the mice were sacrificed as noted above and the kidneys were harvested for assessment of HO-1 mRNA and protein levels. For additional information regarding methods, see Zager et al., Am J Physiol Renal Physiol. 2014 Jul. 30. Pii.

[1] = set-up: species or system mice; conditions: mouse, in vivo, iv
HO-1 [2] = experiment: Renal cortical HO-1 mRNA (RT-PCR) and protein (ELISA) after N-Mgb, SnPP or both; format: in vivo, mice
Protocol: (§1) Thirty-two mice were divided into 4 equal groups: (1) control mice; (2) mice treated with 1 mg of N-Mgb injection (as a bolus through the tail vein); (3) mice treated with […] of SnPP (via tail vein); and (4) mice treated with combined N-Mgb 1 SnPP. After either 4 hours (n=16) or 18 hours (n=16), the mice were deeply anesthetized with pentobarbital (50 mg/kg), the abdomen was opened through a midline abdominal incision, and the kidneys were removed. To determine potential effects on extrarenal organs, a liver lobe and the heart were also removed. The tissues were iced and then extracted for protein and RNA (RNeasy Plus Mini; Qiagen, Valencia, Calif.) and subjected to enzyme linked immunosorbent assay (ELISA) and reverse transcriptase polymerase chain reaction (RT-PCR) for HO-1, haptoglobin, and IL-10 protein and messenger RNAs (mRNAs). Zager et al. J Am Soc Nephrol 2014;25:998-1012; Zager et al. Am J Physiol 2012;303:F139-48. As an assessment of renal function, control mice and the 18 hour after N-Mgb+SnPP—treated mice had blood urea nitrogen (BUN) and plasma creatinine levels measured. Additionally, transverse 10% formalin fixed kidney sections ([…]) were cut and stained with hematoxylin and eosin (H&E) and periodic acid Schiff (PAS) to further assess potential injury.

HO-1 [3] = experiment: Cardiac HO-1 mRNA and protein after N-Mgb, SnPP or both; format: in vivo, mice; conditions: 18 h after Rx treatment
Protocol: as §1

[4] = Glycerol model of rhabdomyolysis-induced AKI; format: in vivo, mice; conditions: IV pretreatment 18 hours before glycerol; 18 hours after glycerol
Protocol: Assessments of cytoresistance. Glycerol model of rhabdomyolysis-induced AKI. Twenty mice were divided into 4 equal groups (controls, mice treated with N-Mgb, SnPP, and mice treated with N-Mgb+SnPP tail vein injections) as described previously. 18 hours later, the mice were briefly anesthetized with isoflurane and immediately injected with 9 mL/kg of 50% glycerol, administered in equally divided doses into each hind limb. At 18 hours after glycerol injection, the mice were anesthetized with pentobarbital, the abdomen was opened, a blood sample for BUN and creatinine assessments was obtained from the vena cava, and the kidneys were resected. The control post-glycerol group and the N-Mgb+SnPP—pretreated glycerol group had kidney sections stained with H&E.
Calculations and statistics. All values are given as the mean […] standard error of the mean. Statistical comparisons were made by unpaired Student's t test. If multiple comparisons were made, the Bonferroni correction was applied. The severity of renal histologic injury in the glycerol AKI model was graded on a […] (least to most severe tubular necrosis and cast formation observed). The histologic results were compared by Wlcoxon rank sum test. Statistical significance was taken as a P value of <0.05.

[5] = Maleate model of AKI (FeS, SnPP, FeS+SnPP); format: in vivo, mice; conditions: IV 1 mg FeS and/or 1 μmole SnPP 18 hrs before IP Na maleate 800 mg/Kg; 18 hrs later
Source text: Effects of Fe sucrose (FeS)/tin protoporphyrin (SnPP) on AKI severity. Maleate model of AKI. When injected into rodents, maleate undergoes relatively selective proximal tubule cell uptake via organic anion transporters. Once intracellular accumulation occurs, maleate is a preferred substrate for succinyl-CoA:3-oxoacid CoA transferase. […] Ample levels of CoA are essential for fatty acid “activation”, allowing for their subsequent metabolism through the Krebs cycle, yielding ATP. In the absence of this process, proximal tubule ATP depletion and cell injury result. Additionally, maleate conjugates the sulfhydryl group of glutathione (GSH), culminating in GSH depletion and potential oxidant tubular stress.
The following experiment tested whether FeS, SnPP or combined FeS+SnPP can mitigate this form of acute kidney injury (AKI). Twenty seven mice were subjected to 200 μL IV tail injections of one of the following: 1) vehicle (phosphate buffered saline, PBS; n, 10); 2) 1 mg FeS (American Regent (Shirley, N.Y.; n, 3); 3) 1 μmole SnPP (Frontier Scientific, Logan, Utah; n 7), or FeS+SnPP, n, 7). Eighteen hrs later, all mice received an IP injection of Na maleate (800 mg/Kg; in 500 ul of PBS). […] The severity of kidney injury was assessed by determining plasma blood urea nitrogen (BUN) and plasma creatinine (PCr) concentrations.

[6] = Berglund et al. Hepatology 1988; cited from earlier work

Question: With `C=Cc1c2[n-]c(c1C)/C=c1\[n-]/c(c(C)c1C=C)=C\c1[n-]c(c(CCC(=O)O)c1C)C=c1[n-]/c(c(C)c1CCC(=O)O)=C\2.[Sn+4]` [SnPP, Sn-protoporphyrin, reference compound] as the compound, how does the “HO-1 mRNA induction (HO-1/GAPDH mRNA), Average” value (HO-1 mRNA; average) read?
Answer: 6.94 HO-1/GAPDH mRNA

Question: What about the “HO-1 mRNA induction (HO-1/GAPDH mRNA), individual mice” value (HO-1 mRNA; single animals) of the same compound?
Answer: 9.72 HO-1/GAPDH mRNA and 8.25 HO-1/GAPDH mRNA and 6.95 HO-1/GAPDH mRNA and 2.85 HO-1/GAPDH mRNA

Question: What about the “Plasma LDH, Average” value [1] of the same compound?
Answer: 4.51 Absorbance U LDH/ml

Question: What about the “increase in renal HO-1 mRNA” value (HO-1 [2]; 4 hours after IV injection, vs controls) of the same compound?
Answer: only modest increases

Question: What about the “increase in renal HO-1 protein” value (HO-1 [2]; 18 hours post-treatment, vs control values) of the same compound?
Answer: only relatively small HO-1 protein increases

Question: What about the “Cardiac mRNA HO-1” value (HO-1 [3]) of the same compound?
Answer: 0.09 ± 0.03

Question: What about the “protection against glycerol-induced AKI (BUN/creatinine levels)” value [4] of the same compound?
Answer: virtually no effect

Question: And the “reductions in BUN/PCr concentrations, maleate-induced AKI” value [5]?
Answer: Neither SnPP alone nor FeS alone significantly altered the severity of renal injury

Question: And the half-life [6]?
Answer: 2 to 4 h
